Data reported in patent publication US10730905B2, “Substituted heteropentadieno-pyrrolopyrimidine ribonucleosides for therapeutic use” (USTAV ORGANICKE CHEMIE A BIOCHEMIE AV CR, V.V.I., priority 2016, dated 2020).

What was measured:
[1] = tested on: U2OS (human bone osteosarcoma); assay: MTT cytotoxic test, U2OS; assay type: cell-based; conditions: U2OS cells
Source text: (§1) MTT test (Nosková V. et al., Neoplasma 2002, 49, 418-425) was used for in vitro evaluation of antitumor activities of newly synthesized compounds on cell lines derived from normal tissues or tumors. Specifically, cell lines K562 (human acute myeloid leukemia); K562-Tax (human acute myeloid leukemia, paclitaxel resistant subline, overexpress multiple drug resistant protein PgP); CEM (T-lymfoblastic leukemia); CEM-DNR-bulk (T-lymfoblastic leukemia, doxorubicin resistant); A549 (human lung adenocarcinoma); HCT116p53 wt (human colorectal cancer, wild-type); HCT116p53−/− (human colorectal cancer, mutant p53) a U2OS (human bone osteosarcoma) were used. Express characteristics, susceptibility profiles of classic antitumor drugs as well as methodology of cytotoxic MTT test have been repeatedly published (Denizot, F.; Lang, R., J. Immunol. Meth. 1986, 89, 271-277; Noskova, V., see above; S̆arek J. et al., J, Med. Chem., 2003).

[2] = tested on: HCT116p53−/− (human colorectal cancer, mutant p53); assay: MTT cytotoxic test, HCT116p53; assay type: cell-based; conditions: HCT116p53 cells (p53 −/−)
Source text: as §1

[3] = tested on: CEM-DNR-bulk (T-lymfoblastic leukemia, doxorubicin resistant); assay: MTT cytotoxic test, CEM-DNR; assay type: cell-based; conditions: Homo sapiens, CEM-DNR cells
Source text: as §1

[4] = MTT cytotoxic test, MRC-5; assay type: cell-based; conditions: MRC-5 cells (normal fibroblasts), MRC-5 normal human fibroblasts
[5] = tested on: A549 (human lung adenocarcinoma); assay: MTT cytotoxic test, A549; assay type: cell-based; conditions: A549 cells
Source text: as §1

[6] = tested on: HCT116p53 wt (human colorectal cancer, wild-type); assay: MTT cytotoxic test, HCT116; assay type: cell-based; conditions: HCT-116, HCT116 cells, p53 wild type
Source text: as §1

[7] = tested on: CCRF-CEM (CEM, T-lymfoblastic leukemia); assay: MTT cytotoxic test, CCRF-CEM; assay type: cell-based; conditions: Homo sapiens, CCRF-CEM cells
Source text: as §1

[8] = tested on: K562-Tax (human acute myeloid leukemia, paclitaxel resistant subline); assay: MTT cytotoxic test, K562-TAX; assay type: cell-based; conditions: K562-TAX cells
Source text: as §1

[9] = tested on: K562 (human acute myeloid leukemia); assay: MTT cytotoxic test, K562; assay type: cell-based; conditions: K562 cells
Source text: as §1

Row | Structure (SMILES) | IC50 [1] | IC50 [2] | IC50 [3] | IC50 [4] | IC50 [5] | IC50 [6] | IC50 [7] | IC50 [8] | IC50 [9] | melting point
1 | Cc1ncnc2c1c1occc1n2[C@@H]1O[C@H](CO)[C@@H](O)[C@H]1O [Compound 1a, 4-Methyl-8-(β-D-ribofuranosyl)-8H-furo[2′,3′:4,5]pyrrolo[2,3-d]pyrimidine] | 0.2 to 0.9 µM | 0.2 to 0.9 µM | 25 to 50 µM | 25 to 50 µM | 0.9 to 10 µM | 0.2 to 0.9 µM | 0.2 to 0.9 µM | 0.9 to 10 µM | 0.2 to 0.9 µM | 
2 | COc1ncnc2c1c1occc1n2[C@@H]1O[C@H](CO)[C@@H](O)[C@H]1O [Compound 1b, 4-Methoxy-8-(β-D-ribofuranosyl)-8H-furo[2′,3′:4,5]pyrrolo[2,3-d]pyrimidine] | 0.2 to 0.9 µM | 0.2 to 0.9 µM | 0.9 to 10 µM | 10 to 25 µM | 0.9 to 10 µM | 0.2 to 0.9 µM | 0.01 to 0.2 µM | 0.2 to 0.9 µM | 0.2 to 0.9 µM | 216 to 219 °C
3 | CSc1ncnc2c1c1occc1n2[C@@H]1O[C@H](CO)[C@@H](O)[C@H]1O [Compound 1c] | 0.2 to 0.9 µM | 0.2 to 0.9 µM | 0.9 to 10 µM | 0.9 to 10 µM | 0.9 to 10 µM | 0.2 to 0.9 µM | 0.2 to 0.9 µM | 0.9 to 10 µM | 0.2 to 0.9 µM | 213 to 217 °C
4 | Nc1ncnc2c1c1occc1n2[C@@H]1O[C@H](CO)[C@@H](O)[C@H]1O [Compound 1d, 8-(β-D-ribofuranosyl)-8H-furo[2′,3′:4,5]pyrrolo[2,3-d]pyrimidin-4-amine] | 0.9 to 10 µM | 25 to 50 µM | 25 to 50 µM | 25 to 50 µM | 25 to 50 µM | 25 to 50 µM | 25 to 50 µM | 25 to 50 µM | 0.9 to 10 µM | 246 to 253 °C
5 | OC[C@H]1O[C@@H](n2c3ccoc3c3c(-c4ccco4)ncnc32)[C@H](O)[C@@H]1O [Compound 1e, 4-(Furan-2-yl)-8-(β-D-ribofuranosyl)-8H-furo[2′,3′:4,5]pyrrolo[2,3-d]pyrimidine] | 0.9 to 10 µM | 25 to 50 µM | 25 to 50 µM | 25 to 50 µM | 25 to 50 µM | 25 to 50 µM | 0.2 to 0.9 µM | 0.9 to 10 µM | 0.9 to 10 µM | 
6 | OC[C@H]1O[C@@H](n2c3ccoc3c3c(-c4ccoc4)ncnc32)[C@H](O)[C@@H]1O [Compound 1f, 4-(Furan-3-yl)-8-(β-D-ribofuranosyl)-8H-furo[2′,3′:4,5]pyrrolo[2,3-d]pyrimidine] | 0.2 to 0.9 µM | 10 to 25 µM | 25 to 50 µM | 25 to 50 µM | 25 to 50 µM | 10 to 25 µM | 0.2 to 0.9 µM | 0.9 to 10 µM | 0.2 to 0.9 µM | 
7 | OC[C@H]1O[C@@H](n2c3ccoc3c3c(-c4cc5ccccc5o4)ncnc32)[C@H](O)[C@@H]1O [Compound 1g, 4-(Benzofuran-2-yl)-8-(β-D-ribofuranosyl)-8H-furo[2′,3′:4,5]pyrrolo[2,3-d]pyrimidine] | 25 to 50 µM | 25 to 50 µM | 25 to 50 µM | 25 to 50 µM | 25 to 50 µM | 25 to 50 µM | 10 to 25 µM | 10 to 25 µM | 25 to 50 µM | 
8 | CN(C)c1ncnc2c1c1occc1n2[C@@H]1O[C@H](CO)[C@@H](O)[C@H]1O [Compound 1h, N,N-dimethyl-8-(β-D-ribofuranosyl)-8H-furo[2′,3′:4,5]pyrrolo[2,3-d]pyrimidin-4-amine] | 25 to 50 µM | 25 to 50 µM | 25 to 50 µM | 25 to 50 µM | 25 to 50 µM | 25 to 50 µM | 25 to 50 µM | 25 to 50 µM | 25 to 50 µM | 212 to 255 °C (dec.)
